The values that follow are results of earlier work, collected in US20260345483A1, “Pharmaceutical Formulation” (Klaria Pharma Holding AB, priority 2018, published 2026).

Data set [1] relates to porcine buccal epithelium. As to conditions: enhancer concentration, ref [6].
The conditions of data set [2]: subcutaneous injection compared with intramuscular injection, ref [3].
The conditions of data set [3]: aqueous solution, ref [4].

As for `CCCCCCCC/C=C\CCCCCCCC(=O)O` [Oleic acid, oleic acid], the “enhanced permeability with porcine buccal epithelium” value in data set [1] is 1-10%.
Take `CNCC(O)c1ccc(O)c(O)c1` (stereo not shown) [adrenaline]: the “time of peak plasma concentration” value in data set [2] was “significantly delayed”. Also, in data set [3], the “pH of acceptable adrenaline stability” value is recorded as less than 5.5 and the “pH of optimal adrenaline stability” value is 3-4.
